Drawing on ChEMBL document CHEMBL3714739, “Compounds for the treatment of pain and screening methods therefor” (2008), this text covers Efficacy for three molecules.

Each structure is given as a SMILES string.

The target of the first assay is Mas-related G-protein coupled receptor member X1 (Homo sapiens) (UniProt Q96LB2). In words: Activation of human MrgX1 receptor expressed in NIH/3T3 cells incubated for 5 days by beta-galactosidase reporter gene assay relative to Bam22. It is filed as cell-based. As to conditions: NIH3T3.
Mas-related G-protein coupled receptor member X1 (Homo sapiens), sequence (Q96LB2 whole entry): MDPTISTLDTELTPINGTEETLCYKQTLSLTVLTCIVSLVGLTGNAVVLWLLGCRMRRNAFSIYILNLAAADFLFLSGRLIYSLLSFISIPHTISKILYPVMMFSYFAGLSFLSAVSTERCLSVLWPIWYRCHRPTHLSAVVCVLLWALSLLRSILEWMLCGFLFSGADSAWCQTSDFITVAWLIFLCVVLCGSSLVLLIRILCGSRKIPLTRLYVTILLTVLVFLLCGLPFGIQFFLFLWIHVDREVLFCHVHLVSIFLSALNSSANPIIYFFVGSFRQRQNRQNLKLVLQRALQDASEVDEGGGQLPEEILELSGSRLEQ
On to `N=C(N)NCCC[C@H](C(N)=O)n1c(-c2cccc(Oc3ccccc3)c2)nc2cc(C(=O)N3CCOCC3)ccc21`, for which the Efficacy amounted to 203%.

In the case of `N=C(N)NCCC[C@H](C(N)=O)n1c(-c2cccc(Oc3ccccc3)c2)nc2cc(C(=O)Nc3ccc4cn[nH]c4c3)ccc21`, the Efficacy was 221%.

`N=C(N)NCCC[C@@H](C(N)=O)n1c(-c2cccc(Oc3ccccc3)c2)nc2cc(C(=O)NCc3cccc(C(F)(F)F)c3)ccc21` yielded an Efficacy of 95%.

In the next assay the target is T1, Mas-related G-protein coupled receptor member X2 (Homo sapiens) (UniProt Q96LB1).
T1 sequence (whole entry): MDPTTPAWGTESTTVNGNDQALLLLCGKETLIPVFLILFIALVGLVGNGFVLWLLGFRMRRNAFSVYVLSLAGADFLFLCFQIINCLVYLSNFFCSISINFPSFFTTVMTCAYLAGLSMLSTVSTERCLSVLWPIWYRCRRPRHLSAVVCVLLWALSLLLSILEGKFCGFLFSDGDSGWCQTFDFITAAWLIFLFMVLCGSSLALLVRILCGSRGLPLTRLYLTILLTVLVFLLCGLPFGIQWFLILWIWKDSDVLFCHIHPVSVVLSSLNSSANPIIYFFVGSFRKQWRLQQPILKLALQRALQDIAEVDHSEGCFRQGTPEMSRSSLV
In words: Activation of human MrgX2 receptor expressed in NIH/3T3 cells incubated for 5 days by beta-galactosidase reporter gene assay relative to STIA. It counts as cell-based. The settings on record: NIH3T3. For orientation: A reporter such as luciferase makes a cellular process visible.
As for `N=C(N)NCCC[C@H](C(N)=O)n1c(-c2cccc(Oc3ccccc3)c2)nc2cc(C(=O)N3CCOCC3)ccc21`, the Efficacy was found to be 6%.

In turn, `N=C(N)NCCC[C@H](C(N)=O)n1c(-c2cccc(Oc3ccccc3)c2)nc2cc(C(=O)Nc3ccc4cn[nH]c4c3)ccc21` had an Efficacy of 2%.

Consider `N=C(N)NCCC[C@@H](C(N)=O)n1c(-c2cccc(Oc3ccccc3)c2)nc2cc(C(=O)NCc3cccc(C(F)(F)F)c3)ccc21`, for which the Efficacy is 21%.
